Read-outs that look alike come from different tables or passages of the source.
Biological target: T1, gamma-secretase (partially purified extract of IMR-32 cell membranes; substrate MBP-C125 Swe fusion protein, cleavage at the Aβ40 site) (Homo sapiens, UniProt P49768)
T1 construct: a partially purified extract of IMR-32 cell membranes as the gamma-secretase enzyme preparation; endogenous in cells; host or cells: IMR-32 cell membranes, partially purified extract
Test: Gamma-secretase APP enzyme assay (Example A)
Format: biochemical
Conditions: assay described in Example A
Procedure, shortened: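 IMR-32 membrane extract, solubilised in BigCHAPS with brain lipid (0.53 mg/ml) in Hepes/NaCl, preincubated 30 min at 37° C with inhibitor; MBP-C125 Swe substrate then added, 2 h at 37° C, SDS-quenched. Aβ40 neo-epitope product measured by sandwich ELISA against six-point standard curve.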

[1] = class symbols, read-out: γAPP IC50
[2] = numeric bounds given instead of class symbols, read-out: γAPP IC50

SMILES | IC50 [1] | further results
O=S(=O)(c1ccc(C(F)(F)F)nc1)N1C2Cc3n[nH]cc3C1c1c(F)ccc(F)c12 (stereo not drawn) [compound 131] | < 100 nM | 
O=S(=O)(c1ccc(C(F)(F)F)cc1)N1C2Cc3[nH]ncc3C1CC(c1cccc(-n3ccnc3)c1)C2 (stereo not drawn) [compound 132] | < 100 nM | 
O=S(=O)(c1ccc(C(F)(F)F)cc1)N1C2Cc3[nH]ncc3C1CC(c1cccc(-n3cccn3)c1)C2 (stereo not drawn) [compound 133] | < 100 nM | 
O=S(=O)(c1ccc(C(F)(F)F)nc1)N1C2Cc3n[nH]cc3C1c1cccc(C3CC3)c1C2 (stereo not drawn) [compound 134] | < 100 nM | 
O=S(=O)(c1ccc(C(F)(F)F)nc1)N1C2Cc3c(C4CC4)cccc3C1Cc1n[nH]cc12 (stereo not drawn) [compound 135] | < 100 nM | 
Cn1ncc(C2CC3Cc4[nH]ncc4C(C2)N3S(=O)(=O)c2ccc(Cl)cc2)n1 (stereo not drawn) [compound 139] |  | IC50 [2]: > 300 nM
Cn1ncc(C2CC3Cc4[nH]ncc4C(C2)N3S(=O)(=O)c2ccc(Cl)cc2)n1 (stereo not drawn) [compound 140] | 100 to 499 nM | 
O=C1CCCN1c1ccc(C2CC3Cc4n[nH]cc4C(C2)N3S(=O)(=O)c2ccc(C(F)(F)F)cc2)cc1 (stereo not drawn) [compound 141] | < 100 nM | 
COC(=O)CCCNc1ccc(C2CC3Cc4n[nH]cc4C(C2)N3S(=O)(=O)c2ccc(C(F)(F)F)cc2)cc1 (stereo not drawn) [compound 142] | < 100 nM | 
O=C1c2n[nH]cc2C2c3cc(F)c(F)cc3C1N2S(=O)(=O)c1ccc(C(F)(F)F)nc1 (stereo not drawn) [compound 148] | < 100 nM | 
O=S(=O)(c1ccc(C(F)(F)F)nc1)N1C2Cc3n[nH]cc3C1c1c(F)ccc(F)c12 (stereo not drawn) [compound 149] | 100 to 499 nM | 
O=S(=O)(c1ccc(C(F)(F)F)nc1)N1C2Cc3n[nH]cc3C1c1c(F)ccc(F)c12 (stereo not drawn) [compound 150] | < 100 nM | 
Cc1cc(F)cc2c1C1c3c[nH]nc3CC2N1S(=O)(=O)c1ccc(C(F)(F)F)nc1 (stereo not drawn) [compound 158] |  | IC50 [2]: > 10 nM
Cc1cc(F)cc2c1C1c3c[nH]nc3CC2N1S(=O)(=O)c1ccc(C(F)(F)F)nc1 (stereo not drawn) [compound 159] | < 100 nM | 
O=S(=O)(c1ccc(C(F)(F)F)cc1)N1C2Cc3[nH]ncc3C1c1ccc3ccccc3c12 (stereo not drawn) [compound 160] | < 100 nM | 
O=C1c2[nH]ncc2C2c3c(F)cccc3C1N2S(=O)(=O)c1ccc(C(F)(F)F)nc1 (stereo not drawn) [compound 161] | < 100 nM | 
O=S(=O)(c1ccc(C(F)(F)F)nc1)N1C2c3cn[nH]c3C(F)(F)C1c1cccc(F)c12 (stereo not drawn) [compound 166] | < 100 nM | 
O=S(=O)(c1ccc(C(F)(F)F)nc1)N1C2Cc3n[nH]cc3C1c1ncsc12 (stereo not drawn) [compound 187] |  | IC50 (γAPP IC50 (nM), class symbols): 100 to 499 nM
O=S(=O)(c1ccc(C(F)(F)F)nc1)N1C2Cc3n[nH]cc3C1c1ncsc12 (stereo not drawn) [compound 188] |  | IC50 (γAPP IC50 (nM), class symbols): > 1000 nM
O=S(=O)(c1ccc(C(F)(F)F)nc1)N1C2Cc3n[nH]cc3C1c1ncsc12 (stereo not drawn) [compound 189] |  | IC50 (γAPP IC50 (nM), class symbols): 100 to 499 nM

The next lines start with results.

IC50 [1] | SMILES | further results
< 100 nM | N#Cc1ccc2c(c1)C1Cc3n[nH]cc3C2N1S(=O)(=O)c1ccc(C(F)(F)F)nc1 (stereo not drawn) [compound 167] | 
< 100 nM | O=S(=O)(c1ccc(C(F)(F)F)cc1)N1C2Cc3[nH]ncc3C1c1ccc3ccccc3c12 (stereo not drawn) [compound 168] | 
100 to 499 nM | O=S(=O)(c1ccc(C(F)(F)F)cc1)N1C2Cc3[nH]ncc3C1c1ccc3ccccc3c12 (stereo not drawn) [compound 169] | 
< 100 nM | O=S(=O)(c1ccc(C(F)(F)F)cc1)N1C2Cc3[nH]ncc3C1c1c2ccc2ccccc12 (stereo not drawn) [compound 170] | 
100 to 499 nM | O=S(=O)(c1ccc(C(F)(F)F)cc1)N1C2Cc3[nH]ncc3C1c1c2ccc2ccccc12 (stereo not drawn) [compound 171] | 
< 100 nM | O=C1c2[nH]ncc2C2c3ccccc3C1N2S(=O)(=O)c1ccc(C(F)(F)F)cc1 (stereo not drawn) [compound 173] | 
< 100 nM | O=S(=O)(c1ccc(C(F)(F)F)cc1)N1C2=Cc3c(-c4cccc(C(F)(F)F)c4)cccc3C1Cc1n[nH]cc12 (stereo not drawn) [compound 177] | 
< 100 nM | O=S(=O)(c1ccc(C(F)(F)F)nc1)N1C2Cc3n[nH]cc3C1c1cccc(F)c12 (stereo not drawn) [compound 183] | 
< 100 nM | O=S(=O)(c1ccc(C(F)(F)F)cc1)N1C2Cc3cccc(F)c3C1Cc1n[nH]cc12 (stereo not drawn) [compound 190] | 
< 100 nM | O=S(=O)(c1ccc(C(F)(F)F)cc1)N1C2Cc3cccc(F)c3C1Cc1n[nH]cc12 (stereo not drawn) [compound 191] | 

Reference: patent US8283358B2, “N-sulfonamido polycyclic pyrazolyl compounds” (Elan Pharmaceuticals, Inc., priority 2008, dated 2012)
